Experimental data as given in patent US7491794B2, “Macrocyclic compounds as inhibitors of viral replication” (Intermune, Inc., priority 2003, dated 2009).
Read-outs that look alike come from different tables or passages of the source.

Experiments:
NS3-NS4A protease = molecular target: T1, NS3-NS4A protease (Hepatitis C virus genotype 1a, UniProt P27958); assay: NS3-NS4A protease assay (NS3 inhibition assay, RETS1 substrate), Section B; type: biochemical
T1 construct: Recombinant E. coli or Baculovirus full-length NS3 was diluted to 3.33 μM with assay buffer; made in house; host or cells: E. coli or baculovirus (BV) system
In short: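 Full-length NS3 (E. coli or baculovirus) precomplexed with excess NS4A-2 peptide, run at 2 nM (E. coli) or 3 nM (BV) NS3; compounds pre-incubated 10 min at room temperature before RETS1 substrate. Fluorescence (ex 335/em 495 nm) read kinetically 30 min; IC50 from four-parameter fit, converted to Ki via Ki=IC50/(1+[S]/Km).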

[1] = test system: HCV sub-genomic replicon, GS4.3; assay: Quantitation by ELISA of NPTII in the HCV sub-genomic replicon, GS4.3, Section B; type: cell-based; details: Hepatitis C virus, read-out: Replicon EC50
In short: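 GS4.3 cells (HuH-7 carrying HCV 1377/NS3-3′ replicon) were treated 72 h at 37 °C with inhibitors in 3-fold dilutions, 1% DMSO, no G418. Lysate NPTII was measured by ELISA (TMB, 450 nm). Signal as % of DMSO control; EC50 from 4-parameter fit.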

T1 sequence (P27958 1027-1657): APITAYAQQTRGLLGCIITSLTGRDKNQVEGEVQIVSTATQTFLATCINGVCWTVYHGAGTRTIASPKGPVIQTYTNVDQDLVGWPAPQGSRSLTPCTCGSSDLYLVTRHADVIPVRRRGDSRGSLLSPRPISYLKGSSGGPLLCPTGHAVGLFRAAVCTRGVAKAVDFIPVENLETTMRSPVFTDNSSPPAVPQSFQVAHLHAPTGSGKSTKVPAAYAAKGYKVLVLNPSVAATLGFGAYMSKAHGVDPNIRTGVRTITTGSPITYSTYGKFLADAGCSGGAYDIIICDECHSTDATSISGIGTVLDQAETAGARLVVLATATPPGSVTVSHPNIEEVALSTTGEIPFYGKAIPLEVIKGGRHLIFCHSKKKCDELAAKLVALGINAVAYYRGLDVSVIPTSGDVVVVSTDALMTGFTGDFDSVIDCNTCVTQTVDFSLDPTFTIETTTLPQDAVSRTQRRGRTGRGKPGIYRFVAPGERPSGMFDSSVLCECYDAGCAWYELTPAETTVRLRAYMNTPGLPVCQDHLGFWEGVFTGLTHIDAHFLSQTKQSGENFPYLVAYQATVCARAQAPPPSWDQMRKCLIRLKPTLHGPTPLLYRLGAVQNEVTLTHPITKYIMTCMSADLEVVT

| SMILES | IC50 (NS3-NS4A protease) [nM] | EC50 ([1]; 72 h) [nM] | IC50 (NS3-NS4A protease; read-out: NS3-NS4A IC50) [nM] | EC50 ([1]; GS4.3 cells, 72 h incubation) [nM] |
| --- | --- | --- | --- | --- |
| CC(C)[C@@H](NC(=O)c1ccc(N(C)C)nc1)C(=O)N[C@H]1CCCCC/C=C\[C@@H]2C[C@@]2(C(=O)O)NC(=O)[C@@H]2C[C@@H](OC(=O)N3CCc4ccccc4C3)CN2C1=O [AR00304072, (1S,4R,6S,14S,18R)-18-(3,4-Dihydro-1H-isoquinoline-2-carbonyloxy)-14-{2-[(6-dimethylamino-pyridine-3-carbonyl)-amino]-3-methyl-butyrylamino}-2,15-dioxo-3,16-diaza-tricyclo[14.3.0.0^4,6]nonadec-7-ene-4-carboxylic acid] | < 1000 | < 10000 | – | – |
| CC(=O)Nc1nnc(S(=O)(=O)NC(=O)[C@@]23C[C@H]2/C=C\CCCCC[C@H](NC(=O)OC(C)(C)C)C(=O)N2C[C@H](OC(=O)N4Cc5ccccc5C4)C[C@H]2C(=O)N3)s1 [AR00334247, (1S,4R,6S,14S,18R)-1,3-Dihydro-isoindole-2-carboxylic acid 4-(5-acetylamino-[1,3,4]thiadiazole-2-sulfonylaminocarbonyl)-14-tert-butoxycarbonylamino-2,15-dioxo-3,16-diaza-tricyclo[14.3.0.0^4,6]nonadec-7-en-18-yl ester] | – | – | < 100 | < 1000 |
| C[C@H]1CN(C(=O)O[C@@H]2C[C@H]3C(=O)N[C@]4(C(=O)O)C[C@H]4C=CCCCCC[C@H](NC(=O)OC(C)(C)C)C(=O)N3C2)Cc2ccccc21 [AR00320122, (1S,4R,6S,14S,18R)-14-tert-Butoxycarbonylamino-18-(4R-methyl-3,4-dihydro-1H-isoquinoline-2-carbonyloxy)-2,15-dioxo-3,16-diaza-tricyclo[14.3.0.0^4,6]nonadec-7-ene-4-carboxylic acid] | – | – | < 1000 | < 10000 |
| O=C(N[C@H]1CCCCC/C=C\[C@@H]2C[C@@]2(C(=O)NS(=O)(=O)C2CC2)NC(=O)[C@@H]2C[C@@H](OC(=O)N3CCc4ccccc4[C@H]3CN3CCCCC3)CN2C1=O)OC1CCCC1 [AR00320557, (1S,4R,6S,14S,18R)-1-Piperidin-1S-ylmethyl-3,4-dihydro-1H-isoquinoline-2-carboxylic acid 14-cyclopentyloxycarbonylamino-4-cyclopropanesulfonylaminocarbonyl-2,15-dioxo-3,16-diaza-tricyclo[14.3.0.0^4,6]nonadec-7-en-18-yl ester] | – | – | < 100 | < 100 |
| CN(C)CCOc1ccc2c(c1)CN(C(=O)O[C@@H]1C[C@H]3C(=O)N[C@]4(C(=O)NS(=O)(=O)C5CC5)C[C@H]4/C=C\CCCCC[C@H](NC(=O)OC(C)(C)C)C(=O)N3C1)C2 [AR00345095, (1S,4R,6S,14S,18R)-5-(2-Dimethylamino-ethoxy)-1,3-dihydro-isoindole-2-carboxylic acid 14-tert-butoxycarbonylamino-4-cyclopropanesulfonylaminocarbonyl-2,15-dioxo-3,16-diaza-tricyclo[14.3.0.0^4,6]nonadec-7-en-18-yl ester] | – | – | < 100 | < 100 |
| O=C(N[C@H]1CCCCCCCC2C[C@@]2(C(=O)NS(=O)(=O)C2CC2)NC(=O)[C@@H]2C[C@@H](OC(=O)N3CCc4ccccc4C3)CN2C1=O)OC1CCCC1 (stereo in doubt) [AR00324375, (1S,4R,6S,14S,18R)-3,4-Dihydro-1H-isoquinoline-2-carboxylic acid 14-cyclopentyloxycarbonylamino-4-cyclopropanesulfonylaminocarbonyl-2,15-dioxo-3,16-diaza-tricyclo[14.3.0.0^4,6]nonadec-18-yl ester] | – | – | < 1000 | < 1000 |
| CN(C)c1cccc2c1CCN(C(=O)O[C@@H]1C[C@H]3C(=O)N[C@]4(C(=O)O)C[C@H]4/C=C\CCCCC[C@H](NC(=O)OC(C)(C)C)C(=O)N3C1)C2 [AR00315997, (1S,4R,6S,14S,18R)-14-tert-Butoxycarbonylamino-18-(5-dimethylamino-3,4-dihydro-1H-isoquinoline-2-carbonyloxy)-2,15-dioxo-3,16-diaza-tricyclo[14.3.0.0^4,6]nonadec-7-ene-4-carboxylic acid] | – | – | < 1000 | < 10000 |
| CC(C)(C)Nc1nc2c(s1)CN(C(=O)O[C@@H]1C[C@H]3C(=O)N[C@]4(C(=O)O)C[C@H]4/C=C\CCCCC[C@H](NC(=O)OC(C)(C)C)C(=O)N3C1)CC2 [AR00304103, (1S,4R,6S,14S,18R)-14-tert-Butoxycarbonylamino-18-(2-tert-butylamino-6,7-dihydro-4H-thiazolo[5,4-c]pyridine-5-carbonyloxy)-2,15-dioxo-3,16-diaza-tricyclo[14.3.0.0^4,6]nonadec-7-ene-4-carboxylic acid] | – | – | < 10000 | < 10000 |
| CC(C)(C)OC(=O)N[C@H]1CCCCC/C=C\[C@@H]2C[C@@]2(C(=O)NS(=O)(=O)C2CC2)NC(=O)[C@@H]2C[C@@H](OC(=O)N3Cc4ccccc4C4(CCC4)C3)CN2C1=O [AR00312024, (1S,4R,6S,14S,18R)-4,4-Spirocyclobutyl-3,4-dihydro-1H-isoquinoline-2-carboxylic acid 14-tert-butoxycarbonylamino-4-cyclopropanesulfonylaminocarbonyl-2,15-dioxo-3,16-diaza-tricyclo[14.3.0.0^4,6]nonadec-7-en-18-yl ester] | – | – | < 100 | < 100 |
| CC(C)NCCOc1ccc2c(c1)CN(C(=O)O[C@@H]1C[C@H]3C(=O)N[C@]4(C(=O)NS(=O)(=O)C5CC5)C[C@H]4/C=C\CCCCC[C@H](NC(=O)OC(C)(C)C)C(=O)N3C1)C2 [AR00345094, (1S,4R,6S,14S,18R)-5-(2-Isopropylamino-ethoxy)-1,3-dihydro-isoindole-2-carboxylic acid 14-tert-butoxycarbonylamino-4-cyclopropanesulfonylaminocarbonyl-2,15-dioxo-3,16-diaza-tricyclo[14.3.0.0^4,6]nonadec-7-en-18-yl ester] | – | – | < 100 | < 100 |
| CC(C)(C)NC(=O)N[C@H]1CCCCC/C=C\[C@@H]2C[C@@]2(C(=O)O)NC(=O)[C@@H]2C[C@@H](OC(=O)N3Cc4ccccc4C3)CN2C1=O [AR00320078, (1S,4R,6S,14S,18R)-14-(3-tert-Butyl-ureido)-18-(1,3-dihydro-isoindole-2-carbonyloxy)-2,15-dioxo-3,16-diaza-tricyclo[14.3.0.0^4,6]nonadec-7-ene-4-carboxylic acid] | – | – | < 100 | < 10000 |
| O=C(N[C@H]1CCCCC/C=C\[C@@H]2C[C@@]2(C(=O)NS(=O)(=O)C2CC2)NC(=O)[C@@H]2C[C@@H](OC(=O)N3Cc4ccccc4C3)CN2C1=O)OC1CCOCC1 [AR00320081, (1S,4R,6S,14S,18R)-1,3-Dihydro-isoindole-2-carboxylic acid 4-cyclopropanesulfonylaminocarbonyl-2,15-dioxo-14-(tetrahydro-pyran-4-yloxycarbonylamino)-3,16-diaza-tricyclo[14.3.0.0^4,6]nonadec-7-en-18-yl ester] | – | – | < 100 | < 100 |
| CC(C)(C)NC(=O)N[C@H]1CCCCC/C=C\[C@@H]2C[C@@]2(C(=O)NS(=O)(=O)C2CC2)NC(=O)[C@@H]2C[C@@H](OC(=O)N3Cc4ccccc4C3)CN2C1=O [AR00320220, (1S,4R,6S,14S,18R)-1,3-Dihydro-isoindole-2-carboxylic acid 14-(3-tert-butyl-ureido)-4-cyclopropanesulfonylaminocarbonyl-2,15-dioxo-3,16-diaza-tricyclo[14.3.0.0^4,6]nonadec-7-en-18-yl ester] | – | – | < 100 | < 100 |
| O=C(NC1CCCC1)N[C@H]1CCCCC/C=C\[C@@H]2C[C@@]2(C(=O)NS(=O)(=O)C2CC2)NC(=O)[C@@H]2C[C@@H](OC(=O)N3Cc4ccc(Cl)cc4C3)CN2C1=O [AR00320574, (1S,4R,6S,14S,18R)-5-Chloro-1,3-dihydro-isoindole-2-carboxylic acid 14-(3-cyclopentyl-ureido)-4-cyclopropanesulfonylaminocarbonyl-2,15-dioxo-3,16-diaza-tricyclo[14.3.0.0^4,6]nonadec-7-en-18-yl ester] | – | – | < 100 | < 100 |
